Measurements reported in patent US20240091247A1, “INHIBITOR FOR CHRONIC MYELOID LEUKEMIA STEM CELLS” (Ohara Pharmaceutical Co., Ltd., priority 2021, published 2024).

Assays:
LXN [1] = test: LXN gene expression by microarray in KBM5 cells; assay type: cell-based; conditions: 100 nM OR21, 1000 nM imatinib
Method: (§1) K562 cells (cell lines derived from CML) were purchased from JCRB cell bank and KBM5 cells (cell lines derived from CML) were provided by Dr. M. Beran (MD Anderson Cancer Center, University of Texas). These calls were cultured in an RPMI 1640 medium containing 10% fetal bovine serum (FBS) and 1% penicillin-streptomycin at 37° C. in atmosphere of 5% CO2.
(§2) After the culture, mRNA was collected and gene expression was comprehensively analyzed by microarrays.

LXN [2] = test: LXN protein expression by Western blotting, OR21 with TKI (FIG. 5); assay type: cell-based; conditions: K562 and KBM5 cells, 100 nM OR21, 1000 nM imatinib, 2.5 nM dasatinib, 1, 2 and 3 days, corrected with β actin
Method: as §1
0, 24, and 48 hours after the cell seeding, 100 nM OR21, a DNA methyltransferase inhibitor, was added. […] After the culture, the cells were collected, dissolved, and determined for protein expression level of LXN by Western blotting. […] The expression level of LXN shown in FIG. 5 represents each expression level of the cases when the LXN expression under each condition was corrected with β actin and the expression level in the control was taken as 1.0.

LXN [3] = test: LXN gene expression by microarray in K562 cells; assay type: cell-based; conditions: 100 nM OR21, 1000 nM imatinib
Method: as §1, §2

DNMT1 = DNMT1 expression in K562 cells (FIG. 6); assay type: cell-based; conditions: 100 nM azacytidine, decitabine or cytarabine
LXN [4] = test: LXN protein expression by Western blotting in K562 cells, azacytidine/decitabine/cytarabine with imatinib (FIG. 6); assay type: cell-based; conditions: 100 nM azacytidine, decitabine or cytarabine, 1000 nM imatinib
Method: 0, 24, and 48 hours after the cell seeding, azacytidine (100 nM), decitabine (100 nM), or cytarabine (100 nM) was added to K562 cell culture, cultured for 2 days. […] After the culture, the cells were collected, dissolved, and determined for protein expression level of LXN by Western blotting. The expression level of LXN shown in FIG. 6 represents each expression level of the cases when the LXN expression under each condition was corrected with β actin and the expression level in the control was taken as 1.0.

stem cells of CML = test: Limiting dilution assay in secondarily transplanted mice; assay type: in vivo; conditions: peripheral blood, 16 weeks after secondary transplantation; compared to vehicle or IM donor group
Method: Then, engraftment of GFP positive cells in the peripheral blood (PB) at 16 weeks after the secondary transplantation was determined and analyzed by limiting dilution assay. […] The bottom row of the table indicates the cell number required to be engrafted. The larger numbers mean that it is more difficult to engraft. It is noted that engraftment of GFP positive cells is defined to have a GFP positive rate of 0.5% or more in the peripheral blood of recipient mice. […] The higher plots or slope of the lines mean that it is more difficult to engraft.

[5] = test system: stem cells or progenitor cells of CML; test: Mouse model of CML (recipient mice engrafted with GFP positive MIG-BCR-ABL1 myeloid cells); assay type: in vivo; conditions: after 12 days of administration, OR21 1.35 mg/kg i.p., IM 150 mg/kg oral
Method: Recipient mice were engrafted with myeloid cells to which GFP positive MIG-BCR-ABL1 had been introduced and used as CML models. […] After administration of the drugs to each group for 12 days, the GFP positive cells in peripheral blood, bone marrow, and spleen were determined. Inter-group comparisons were performed by a significance test of Mann-Whitney U-tests (p<0.05, **p<0.01) in FIG. 1.

| SMILES | gene expression level of LXN in respect of the control (LXN [1]) [times] | protein expression level of LXN (LXN [2]) | gene expression level of LXN in respect of the control (LXN [3]) [times] | expression of DNMT1 (DNMT1) | protein expression of LXN (LXN [4]) | further results |
| --- | --- | --- | --- | --- | --- | --- |
| Cc1ccc(NC(=O)c2ccc(CN3CCN(C)CC3)cc2)cc1Nc1nccc(-c2cccnc2)n1 [imatinib] | 1.9 | almost no effect | 1.3 | – | – | – |
| Nc1ncn([C@@H]2O[C@H](CO)[C@@H](O)[C@H]2O)c(=O)n1 [azacytidine, 4-amino-1-β-D-ribofuranosyl-s-triazin-2(1H)-one] | – | – | – | reduced | – | – |
| Nc1ccn([C@@H]2O[C@H](CO)[C@@H](O)[C@@H]2O)c(=O)n1 [cytarabine] | – | – | – | did not exhibit inhibitory effect | no increase | – |
| CC[Si](CC)(CC)OC[C@H]1O[C@@H](n2cnc(N)nc2=O)C[C@@H]1O [OR21] | 3.4 | increase in the protein expression level of LXN over time | 4.5 | – | – | GFP positive cells in mice of the secondary transplantation (stem cells of CML): significantly reduced; linage-negative cells (Lin-) in bone marrow [5]: decreased; Lin-Sca-1+c-Kit+ (LSK) cells ([5]; bone marrow): decreased; GFP positive cell rate ([5]; peripheral blood, bone marrow and spleen, compared to vehicle group): significant decrease |
| Nc1ncn([C@H]2C[C@H](O)[C@@H](CO)O2)c(=O)n1 [decitabine, 4-amino-1-(2-deoxy-β-D-erythro-pentofuranosyl)-1,3,5-triazin-2(1H)-one] | – | – | – | reduced | increased | – |
